# Active and inactive are the calls of the source.
# Key:
# [1] = target: ADP-ribosylation factor GTPase-activating protein 1 (Rattus norvegicus, UniProt Q62848); experiment: Fluorescence polarization-based biochemical high throughput dose response screening assay to identify inhibitors of ADP-ribosylation factor GTPase activating protein 1 (ARFGAP1).; format: functional
# [2] = target: Nuclear receptor subfamily 5 group A member 2 (Homo sapiens, UniProt O00482); format: functional, cell-based;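 note: HEK293T cells transfected with LRH-1 and a StAR promoter luciferase reporter; potency for inhibitors that lower LRH-1 driven reporter light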
# Chain of Nuclear receptor subfamily 5 group A member 2 (O00482 whole entry): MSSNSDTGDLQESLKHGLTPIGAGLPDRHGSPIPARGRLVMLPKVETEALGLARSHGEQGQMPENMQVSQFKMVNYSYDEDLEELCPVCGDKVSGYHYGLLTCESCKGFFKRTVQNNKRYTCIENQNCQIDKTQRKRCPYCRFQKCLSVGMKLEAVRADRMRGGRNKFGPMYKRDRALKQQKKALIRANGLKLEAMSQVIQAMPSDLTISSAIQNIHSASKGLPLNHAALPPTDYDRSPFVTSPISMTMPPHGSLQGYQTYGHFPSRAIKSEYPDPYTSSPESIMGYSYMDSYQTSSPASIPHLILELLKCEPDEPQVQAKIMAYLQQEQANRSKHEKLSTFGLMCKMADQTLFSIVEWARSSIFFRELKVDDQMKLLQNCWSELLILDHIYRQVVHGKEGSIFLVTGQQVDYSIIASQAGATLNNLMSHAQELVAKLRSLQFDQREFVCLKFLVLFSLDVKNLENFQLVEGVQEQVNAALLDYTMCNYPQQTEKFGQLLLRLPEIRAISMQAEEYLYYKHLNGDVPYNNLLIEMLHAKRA
# Steroidogenic factor 1 = Steroidogenic factor 1 (Homo sapiens, UniProt Q13285); experiment: Counterscreen for inverse agonists of the liver receptor homolog-1 (LRH-1; NR5A2): Luminescence-based cell-based high throughput dose response assay to identify inverse agonists of the Steroidogenic Factor 1 Nuclear Receptor (SF1; NR5A1).; format: functional
# Chain of Steroidogenic factor 1 (Q13285 whole entry): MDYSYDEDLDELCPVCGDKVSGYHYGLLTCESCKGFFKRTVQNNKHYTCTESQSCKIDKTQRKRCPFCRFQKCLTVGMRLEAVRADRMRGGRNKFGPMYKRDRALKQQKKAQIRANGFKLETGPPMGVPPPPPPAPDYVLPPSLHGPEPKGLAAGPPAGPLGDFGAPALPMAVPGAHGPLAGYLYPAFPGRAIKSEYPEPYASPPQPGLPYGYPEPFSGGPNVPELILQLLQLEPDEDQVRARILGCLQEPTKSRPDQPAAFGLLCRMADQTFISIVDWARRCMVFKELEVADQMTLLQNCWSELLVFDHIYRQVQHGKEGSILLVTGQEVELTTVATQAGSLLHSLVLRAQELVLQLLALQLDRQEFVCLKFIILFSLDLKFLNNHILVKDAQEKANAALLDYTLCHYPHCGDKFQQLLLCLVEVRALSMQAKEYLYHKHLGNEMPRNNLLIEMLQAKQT
# [3] = nonselective StAR promoter luciferase inhibitors – cell-based, luminescence, luciferase reporter, counter-screen for LRH-1 inverse agonist project, dose response (AID 651969); format: functional
# [4] = bead-based luminescence quenchers, dual-tagged ARNT – biochemical, AlphaScreen, cherry-pick, artefact control for ARNT-TACC3 interaction inhibitor project, dose response (AID 651705); format: functional;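 note: AlphaScreen bead proximity signal that flags compounds interfering with the detection technology; potency reflects signal decrease which marks the compound as an assay artifact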
# [5] = target: Potassium voltage-gated channel subfamily KQT member 2 (Rattus norvegicus, UniProt O88943); experiment: blockers of KCNQ2 channel current – cell-based, automated electrophysiology, set II, rat KCNQ2, dose response (AID 588637); format: functional
# Chain of Potassium voltage-gated channel subfamily KQT member 2 (O88943 whole entry): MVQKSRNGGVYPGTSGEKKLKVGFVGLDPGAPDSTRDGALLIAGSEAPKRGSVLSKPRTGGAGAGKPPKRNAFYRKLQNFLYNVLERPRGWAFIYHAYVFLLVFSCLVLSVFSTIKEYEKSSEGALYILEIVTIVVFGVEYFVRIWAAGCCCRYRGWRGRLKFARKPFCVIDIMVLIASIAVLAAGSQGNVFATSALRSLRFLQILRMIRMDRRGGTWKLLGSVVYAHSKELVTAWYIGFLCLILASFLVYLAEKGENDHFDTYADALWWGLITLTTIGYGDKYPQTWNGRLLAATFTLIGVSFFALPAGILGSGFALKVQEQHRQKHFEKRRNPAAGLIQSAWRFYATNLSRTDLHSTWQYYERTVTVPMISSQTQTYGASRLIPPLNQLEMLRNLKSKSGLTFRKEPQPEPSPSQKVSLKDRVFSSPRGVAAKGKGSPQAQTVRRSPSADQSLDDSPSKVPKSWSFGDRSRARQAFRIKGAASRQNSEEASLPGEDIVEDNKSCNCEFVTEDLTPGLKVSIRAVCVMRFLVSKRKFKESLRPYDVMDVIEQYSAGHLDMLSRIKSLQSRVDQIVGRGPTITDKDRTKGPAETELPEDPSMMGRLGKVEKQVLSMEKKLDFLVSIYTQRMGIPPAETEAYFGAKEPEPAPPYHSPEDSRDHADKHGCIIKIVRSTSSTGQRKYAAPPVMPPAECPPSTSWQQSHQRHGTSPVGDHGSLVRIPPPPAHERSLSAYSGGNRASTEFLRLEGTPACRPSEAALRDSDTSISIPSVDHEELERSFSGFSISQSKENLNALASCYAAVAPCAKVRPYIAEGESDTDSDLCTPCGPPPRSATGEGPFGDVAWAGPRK
# Interleukin-8 = target: T1, Interleukin-8 (Homo sapiens, UniProt P10145); experiment: Dose Response confirmation of uHTS small molecule hits for cystic fibrosis induced NFkb Inhibitors in a PAF-induced IL8 counterscreen.; format: functional; conditions: read-out: IC50_Mean
# T1 sequence (P10145 whole entry): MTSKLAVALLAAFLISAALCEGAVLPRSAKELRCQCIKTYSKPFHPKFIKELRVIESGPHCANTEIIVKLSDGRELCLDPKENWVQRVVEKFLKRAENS
# [6] = inhibition of ARNT PAS-B/TACC3 complex formation – biochemical, AlphaScreen, cherry-picked samples, confirmation (AID 651703); format: functional, Homo sapiens;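 note: His-tagged ARNT PAS-B domain paired with GST-TACC3 E629A dimer coactivator fragment; potency of inhibitors that break up the complex and lower AlphaScreen signal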
# Protein RecA = target: T2, Protein RecA (Mycobacterium tuberculosis, UniProt P9WHJ3); experiment: Fluorescence Cell-Free Homogeneous Dose Retest to Identify Inhibitors of RecA-Intein Splicing Activity. [Related pubchem assays (depositor defined):AID2097, AID2223, AID489010, AID492950]; format: functional
# T2 sequence (P9WHJ3 whole entry): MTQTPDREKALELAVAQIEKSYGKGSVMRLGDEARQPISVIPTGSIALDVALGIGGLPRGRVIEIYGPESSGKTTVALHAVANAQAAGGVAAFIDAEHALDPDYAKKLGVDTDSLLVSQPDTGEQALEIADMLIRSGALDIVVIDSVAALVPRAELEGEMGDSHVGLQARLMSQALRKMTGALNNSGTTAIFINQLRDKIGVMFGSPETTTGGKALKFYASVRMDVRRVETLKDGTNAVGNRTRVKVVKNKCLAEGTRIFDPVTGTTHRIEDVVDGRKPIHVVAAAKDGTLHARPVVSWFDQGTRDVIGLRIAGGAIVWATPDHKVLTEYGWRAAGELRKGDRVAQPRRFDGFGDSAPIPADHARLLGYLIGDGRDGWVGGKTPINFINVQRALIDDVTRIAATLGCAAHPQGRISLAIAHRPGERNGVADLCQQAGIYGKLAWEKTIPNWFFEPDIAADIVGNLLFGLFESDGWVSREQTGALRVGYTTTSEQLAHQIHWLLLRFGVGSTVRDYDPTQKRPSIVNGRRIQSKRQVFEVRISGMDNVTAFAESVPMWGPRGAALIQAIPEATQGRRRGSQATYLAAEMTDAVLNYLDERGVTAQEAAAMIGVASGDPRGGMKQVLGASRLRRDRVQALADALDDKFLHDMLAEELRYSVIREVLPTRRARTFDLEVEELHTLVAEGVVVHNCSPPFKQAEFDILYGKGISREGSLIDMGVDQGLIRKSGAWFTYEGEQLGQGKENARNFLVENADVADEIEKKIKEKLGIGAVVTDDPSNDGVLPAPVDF
# [7] = target: T3, Replicative DNA helicase DnaB (Mycobacterium tuberculosis, UniProt P9WMR3); experiment: DnaB intein splicing inhibitors, dose response, biochemical, cell-free fluorescence (AID 449749); format: functional
# T3 sequence (P9WMR3 whole entry): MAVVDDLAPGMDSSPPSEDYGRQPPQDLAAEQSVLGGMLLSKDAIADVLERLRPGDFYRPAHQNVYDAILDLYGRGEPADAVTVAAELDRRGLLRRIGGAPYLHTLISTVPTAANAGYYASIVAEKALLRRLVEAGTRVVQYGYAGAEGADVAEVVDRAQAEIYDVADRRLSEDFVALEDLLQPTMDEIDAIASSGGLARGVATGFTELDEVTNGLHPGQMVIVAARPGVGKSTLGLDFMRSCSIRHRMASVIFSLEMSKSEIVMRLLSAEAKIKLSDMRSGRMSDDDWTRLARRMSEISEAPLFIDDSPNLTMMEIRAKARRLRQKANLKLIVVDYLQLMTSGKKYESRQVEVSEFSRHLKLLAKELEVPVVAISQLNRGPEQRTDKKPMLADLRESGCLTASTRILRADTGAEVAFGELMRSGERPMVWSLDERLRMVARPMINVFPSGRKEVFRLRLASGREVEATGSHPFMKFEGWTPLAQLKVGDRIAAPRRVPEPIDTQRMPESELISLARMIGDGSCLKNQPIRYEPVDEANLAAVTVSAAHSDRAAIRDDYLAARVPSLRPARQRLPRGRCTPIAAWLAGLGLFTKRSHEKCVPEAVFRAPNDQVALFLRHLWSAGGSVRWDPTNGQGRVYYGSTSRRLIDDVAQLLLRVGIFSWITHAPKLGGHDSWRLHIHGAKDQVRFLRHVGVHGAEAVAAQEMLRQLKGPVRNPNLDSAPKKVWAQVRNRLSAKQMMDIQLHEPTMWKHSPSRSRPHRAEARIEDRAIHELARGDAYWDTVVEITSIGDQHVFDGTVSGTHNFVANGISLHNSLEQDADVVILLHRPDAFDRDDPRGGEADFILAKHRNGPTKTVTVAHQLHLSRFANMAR
# [8] = Vero cell cytotoxicity, cytotoxicity control for M. tuberculosis inhibitor project, purified and synthesized samples, set 3 (AID 504684); format: functional
# [9] = A Cell Based Secondary Assay to Explore Cytotoxicity in THP-1 Cells of Compounds that Modulate Mycobacterium tuberculosis in Media Containing Glycerol versus Media without Glycerol (2).; format: functional
# [10] = target: T4, Sentrin-specific protease 8 (Homo sapiens, UniProt Q96LD8); format: functional
# T4 sequence (Q96LD8 whole entry): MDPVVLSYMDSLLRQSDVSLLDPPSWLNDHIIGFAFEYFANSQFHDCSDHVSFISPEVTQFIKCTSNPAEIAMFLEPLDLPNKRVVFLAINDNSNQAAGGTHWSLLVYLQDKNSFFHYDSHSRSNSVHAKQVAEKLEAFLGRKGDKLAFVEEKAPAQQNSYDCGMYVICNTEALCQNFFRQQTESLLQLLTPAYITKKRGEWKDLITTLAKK
# [11] = target: T4, Sentrin-specific protease 8; format: functional; remark: listed apart in the source
# [12] = target: T5, Sentrin-specific protease 1 (Homo sapiens, UniProt Q9P0U3); experiment: Dose response confirmation of small molecule inhibitors of the catalytic domain of the SUMO protease, SENP1 in a FRET assay.; format: functional; conditions: read-out: IC50_Mean
# T5 sequence (Q9P0U3 whole entry, the tested form may be a part): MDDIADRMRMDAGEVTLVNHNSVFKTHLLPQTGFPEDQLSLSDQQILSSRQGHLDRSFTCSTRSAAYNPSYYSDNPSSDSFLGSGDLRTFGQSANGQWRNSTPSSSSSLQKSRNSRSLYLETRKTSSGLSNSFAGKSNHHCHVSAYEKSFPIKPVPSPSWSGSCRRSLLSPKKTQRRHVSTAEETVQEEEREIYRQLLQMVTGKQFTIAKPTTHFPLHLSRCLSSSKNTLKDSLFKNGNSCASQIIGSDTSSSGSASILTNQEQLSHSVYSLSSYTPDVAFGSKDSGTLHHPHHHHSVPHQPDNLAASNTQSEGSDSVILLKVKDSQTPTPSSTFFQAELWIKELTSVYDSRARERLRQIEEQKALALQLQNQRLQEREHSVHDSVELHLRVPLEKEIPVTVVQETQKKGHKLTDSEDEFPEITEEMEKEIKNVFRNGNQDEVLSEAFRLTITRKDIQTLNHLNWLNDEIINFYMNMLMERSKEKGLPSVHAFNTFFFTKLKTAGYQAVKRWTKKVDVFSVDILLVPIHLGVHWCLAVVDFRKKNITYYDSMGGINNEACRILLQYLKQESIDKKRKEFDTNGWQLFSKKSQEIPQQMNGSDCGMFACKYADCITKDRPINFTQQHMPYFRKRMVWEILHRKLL
# [13] = target: T5, Sentrin-specific protease 1; experiment: SENP1 catalytic domain blockers, concentration series – biochemical, kinetic FRET, dose response (AID 651697); format: functional; conditions: read-out: IC50_Mean
# [14] = target: T6, Carboxy-terminal domain RNA polymerase II polypeptide A small phosphatase 1 (Homo sapiens, UniProt Q9GZU7); experiment: CTDSP1 inhibitors, concentration-response, biochemical, absorbance readout, ultra-high-throughput screen actives (AID 540297); format: functional
# T6 sequence (Q9GZU7 whole entry): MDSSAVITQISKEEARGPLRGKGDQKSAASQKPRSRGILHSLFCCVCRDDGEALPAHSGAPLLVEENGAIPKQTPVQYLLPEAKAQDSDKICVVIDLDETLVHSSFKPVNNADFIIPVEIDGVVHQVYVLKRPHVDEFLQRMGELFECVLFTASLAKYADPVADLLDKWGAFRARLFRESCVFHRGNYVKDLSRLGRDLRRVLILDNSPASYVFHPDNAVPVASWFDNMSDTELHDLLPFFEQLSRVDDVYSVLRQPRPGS
# [15] = target: T7, Corticotropin-releasing factor receptor 2/Corticotropin-releasing factor-binding protein (Homo sapiens, UniProt P24387+Q13324); experiment: activators of CRF receptor 2 with binding protein – uHTS hits, confirmation (AID 602473); format: functional; conditions: read-out: EC50_Mean
# T7 sequence (Q13324 whole entry): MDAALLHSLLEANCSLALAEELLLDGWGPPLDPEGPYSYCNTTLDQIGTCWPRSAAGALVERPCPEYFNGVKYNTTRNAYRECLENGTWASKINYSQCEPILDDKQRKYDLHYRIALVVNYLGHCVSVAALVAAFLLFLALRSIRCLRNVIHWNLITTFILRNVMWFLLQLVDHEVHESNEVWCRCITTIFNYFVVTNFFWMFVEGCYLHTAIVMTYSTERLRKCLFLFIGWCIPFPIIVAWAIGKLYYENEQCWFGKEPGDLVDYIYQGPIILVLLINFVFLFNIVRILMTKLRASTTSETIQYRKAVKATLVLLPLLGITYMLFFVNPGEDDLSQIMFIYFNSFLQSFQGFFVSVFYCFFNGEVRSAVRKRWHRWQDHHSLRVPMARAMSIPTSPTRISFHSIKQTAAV
# T7 sequence (P24387 whole entry): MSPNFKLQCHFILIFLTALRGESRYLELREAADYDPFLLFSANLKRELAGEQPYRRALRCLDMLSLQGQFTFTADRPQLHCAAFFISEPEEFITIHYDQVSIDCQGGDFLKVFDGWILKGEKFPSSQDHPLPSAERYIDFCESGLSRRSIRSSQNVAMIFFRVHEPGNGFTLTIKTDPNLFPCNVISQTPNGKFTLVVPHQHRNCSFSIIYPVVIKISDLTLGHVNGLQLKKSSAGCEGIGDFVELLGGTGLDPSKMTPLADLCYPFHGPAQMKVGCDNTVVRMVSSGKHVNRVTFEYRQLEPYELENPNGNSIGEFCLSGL
# [16] = blockers of CRF-binding protein–CRF-R2 complex – cell-based, uHTS hits, 384-well, dose response (AID 651639); format: functional, Homo sapiens; conditions: read-out: IC50_Mean
# [17] = target: T7, Corticotropin-releasing factor receptor 2/Corticotropin-releasing factor-binding protein; experiment: Dose Response confirmation of uHTS hits for small molecule antagonists of the CRF-binding protein and CRF-R2 receptor complex.; format: functional; conditions: read-out: IC50_Mean
# [18] = target: Hepatocyte nuclear factor 4-alpha (Homo sapiens, UniProt P41235); format: functional, cell-based;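 note: biochemical luminescence-based dose-response counterscreen measuring inhibition of HNF4 dimerization, run alongside a screen for blockers of ABHD5–perilipin-5 interaction; split luciferase complementation of HNF4 fusion proteins in cell lysate measuring dimerization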
# Chain of Hepatocyte nuclear factor 4-alpha (P41235 whole entry, the tested form may be a part): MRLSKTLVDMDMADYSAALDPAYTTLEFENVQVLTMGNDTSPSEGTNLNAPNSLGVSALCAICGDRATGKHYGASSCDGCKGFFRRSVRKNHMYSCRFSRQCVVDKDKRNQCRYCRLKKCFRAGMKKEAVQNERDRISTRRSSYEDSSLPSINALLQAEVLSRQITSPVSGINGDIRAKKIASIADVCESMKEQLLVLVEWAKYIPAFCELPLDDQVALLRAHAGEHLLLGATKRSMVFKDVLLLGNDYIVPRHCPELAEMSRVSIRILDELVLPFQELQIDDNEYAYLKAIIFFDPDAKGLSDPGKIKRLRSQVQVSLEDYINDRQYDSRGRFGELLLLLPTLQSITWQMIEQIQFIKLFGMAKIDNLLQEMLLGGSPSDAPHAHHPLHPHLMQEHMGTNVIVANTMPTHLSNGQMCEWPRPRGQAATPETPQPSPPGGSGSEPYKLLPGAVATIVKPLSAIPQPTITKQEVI
# [19] = target: T8, Aryl hydrocarbon receptor (Homo sapiens, UniProt P35869); conditions: Potency;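 note: confirmatory quantitative high-throughput screen measuring activation of the AhR signaling pathway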
# T8 sequence (P35869 whole entry): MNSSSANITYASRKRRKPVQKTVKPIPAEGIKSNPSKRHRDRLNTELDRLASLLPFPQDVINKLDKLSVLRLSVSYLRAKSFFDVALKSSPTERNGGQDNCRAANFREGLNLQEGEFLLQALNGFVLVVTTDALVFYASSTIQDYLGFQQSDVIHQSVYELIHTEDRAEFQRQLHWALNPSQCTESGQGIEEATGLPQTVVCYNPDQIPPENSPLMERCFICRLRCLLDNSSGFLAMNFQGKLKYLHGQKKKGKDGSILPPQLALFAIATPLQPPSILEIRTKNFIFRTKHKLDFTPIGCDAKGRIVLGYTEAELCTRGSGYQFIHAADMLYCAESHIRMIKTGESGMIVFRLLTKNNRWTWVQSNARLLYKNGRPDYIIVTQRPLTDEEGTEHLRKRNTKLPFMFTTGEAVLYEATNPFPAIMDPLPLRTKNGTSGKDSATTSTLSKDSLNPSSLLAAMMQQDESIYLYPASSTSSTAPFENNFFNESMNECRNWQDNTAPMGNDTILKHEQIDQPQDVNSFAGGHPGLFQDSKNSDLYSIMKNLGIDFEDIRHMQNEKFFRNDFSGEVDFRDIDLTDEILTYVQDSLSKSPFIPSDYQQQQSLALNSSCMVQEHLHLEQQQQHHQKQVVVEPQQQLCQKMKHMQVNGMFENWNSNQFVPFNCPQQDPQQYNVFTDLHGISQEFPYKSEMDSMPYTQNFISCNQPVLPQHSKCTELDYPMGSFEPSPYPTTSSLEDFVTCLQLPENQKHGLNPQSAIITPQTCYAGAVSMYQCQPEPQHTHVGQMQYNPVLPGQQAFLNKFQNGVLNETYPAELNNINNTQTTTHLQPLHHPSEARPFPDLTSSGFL
# Chain of ADP-ribosylation factor GTPase-activating protein 1 (Q62848 whole entry): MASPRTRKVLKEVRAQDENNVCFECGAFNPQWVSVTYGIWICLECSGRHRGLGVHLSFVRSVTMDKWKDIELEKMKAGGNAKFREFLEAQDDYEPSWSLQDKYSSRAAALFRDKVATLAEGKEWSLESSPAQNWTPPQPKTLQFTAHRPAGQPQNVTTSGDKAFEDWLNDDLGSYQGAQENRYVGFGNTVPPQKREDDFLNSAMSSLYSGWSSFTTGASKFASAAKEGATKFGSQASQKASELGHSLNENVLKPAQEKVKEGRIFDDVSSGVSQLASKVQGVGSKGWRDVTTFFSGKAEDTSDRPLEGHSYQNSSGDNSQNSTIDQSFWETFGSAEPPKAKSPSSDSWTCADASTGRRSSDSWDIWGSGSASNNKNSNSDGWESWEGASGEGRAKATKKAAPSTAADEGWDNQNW
compound,measurement,setting,value
COc1ccc(NC(=O)Cn2nnc(C(=O)Nc3ccc(F)c(Cl)c3)c2N)cc1,IC50,[1],53.1 µM (inactive)
COc1ccc(-n2c(N)c(C(=O)NCc3cccnc3)sc2=S)cc1,IC50,[2],35.9 µM (inactive)
same,IC50,Steroidogenic factor 1,5.22 µM (active)
same,IC50,[3],35.9 µM (inactive)
Cc1cccc(NC(=O)CSc2cccc3cccnc23)c1,AC50,[4],76.9 µM (active)
O=C(OCC(=O)N(CCc1ccccc1)Cc1ccccc1)c1ccccc1O,IC50,[5],1.83 µM (active)
OCCN1CCN(c2ncnc3ccc(Br)cc23)CC1,IC50,Interleukin-8,22 µM (inactive)
COC(=O)CC1=NN(c2nc(C)cc(C)n2)C(=O)C1,AC50,[6],123 µM (active)
same,EC50,Protein RecA,> 380 µM (inactive)
same,AC50,[7],103 µM (active)
CCOC(=O)C(C)Sc1ncnc2c1nnn2-c1ccc(F)cc1 (centres undefined),CC50,[8],67.1 µM (active)
same,EC50,Protein RecA,10.9 µM (active)
same,CC50,[9],55.2 µM (active)
same,AC50,[7],10.4 µM (active)
COc1ccc(S(=O)(=O)Oc2ccc3cccc(N)c3c2)cc1,IC50,[10],19.6 µM (active)
same,IC50,[11],9.11 µM (active)
O=C(NC[C@@H]1CCCO1)c1cccc2c1C(=O)c1ccc(N3CCOCC3)cc1S2(=O)=O,IC50,[12],16.4 µM (active)
same,IC50,[13],12 µM (active)
C=CCn1cnc2c(c1=O)c1nc3ccccc3nc1n2/N=C/c1cccc(OC)c1OC,IC50,[14],10.1 µM (active)
same,EC50,[15],> 53 µM (inactive)
same,IC50,[16],2.21 µM (active)
same,IC50,[17],3.36 µM (active)
O=C(NC1CCCCC1)C(c1cccc2ccccc12)n1c(=O)c(-c2ccco2)nc2ccccc21 (centres undefined),IC50,[18],1.48 µM (active)
CC1(COc2ccc(CC3SC(=O)NC3=O)cc2)CCCCC1 (centres undefined) [CIGLITAZONE],AC50,[19],56.2 µM (inconclusive)
